4 molecules from publication PMC11653243, “Enhancing Phototoxicity in BODIPY‐Perylene Charge Transfer Dyads by Combined Iodination and Mesylation” (Chemistry (Weinheim an Der Bergstrasse, Germany), 2024) can be followed below.

“And” between values parts separate entries of the source, which are not always exact repeats. Equal entries are not always repeated. A value given as a limit tells only on which side of the number the result lay.

Data set [1] relates to MCF‐7 spheroids. Kind of data set: Spheroid phototoxicity, 470 nm LED, CellTiter-Glo 3D. The format is cell-based. Conditions: MCF‐7 3D (spheroids); for IC50: Homo sapiens, MCF7, light or radiation study, 470 nm LED, 5±0.54 J/cm^2 (2.2 mW/cm^2 for 0.5 h); for Photo Index (PI), ratio of dark IC50 to light IC50: 5 J/cm^2, 470 nm LED. How it is done:
3D Cell Studies: Toxicity Assays
Spheroids were seeded in a clear BIOFLOAT™ round bottom 96 well plate (Sarstedt) at 2x10^4 cells per well, centrifuged using the […] for 5 minutes at 700 rpm and allowed to grow and compact for 96 hours. A 2X concentrated solution of B2P, B2PI, MB2P or MB2PI was added in a 1:1 ratio (BODIPY:media) to each well of the 96 well plate, which contained 50 µL phenol red free media, and incubated for 24 h. Prior to irradiation 90% of the media/Ru solution was removed, replaced with fresh phenol red media to dilute the remaining BODIPY (multiple dilution steps, more required for 15 µM and above), and brought to a total volume of 100 µL. Phototoxicity studies in […] spheroids were performed as per the cell monolayer protocol with an irradiation dose of 5 J/cm2 using a 470 nm LED.
Control studies with untreated spheroids confirmed 17 J/cm2 irradiation dose was toxic to spheroids, however the spheroids remained viable after 5 J/cm2 irradiation. CellTiter-Glo 3D cell viability assay (Promega) was used to assess spheroid viability and performed as per the manufacturer’s protocol, where the CellTiter-Glo 3D reagent was added to the spheroid wells
(In general: Cellular ATP, detected with luciferase, serves as a proxy for viable cell number.)

Data set [2] relates to MCF‐7 cells. Description: Cellular uptake and co-localisation by confocal microscopy. The format is cell-based. To be noted: ER Tracker 1 µM, 45 min. How it is done:
The intracellular uptake of the BODIPY derivatives was assessed in two mammalian cell lines, CHO (non‐cancer) and MCF‐7 (cancer). […] B2P and B2PI were studied following 4 h and 17 h incubation in MCF‐7 cells with 10 μM of each BODIPY derivative. A 17 h incubation was selected to allow for adequate cell uptake of the complex, ensuring sufficient brightness for confocal imaging while minimising cell toxicity.
Across all four compounds uptake of the BODIPYs led to extremely bright and highly punctate staining from within the cells. As all of the BODIPY‐perylene probes emit minimally from aqueous media including cell culture media (Figure S20) the bright emission is attributed to localisation of the complex to non‐aqueous domains, i. e. organelle membranes or to lipid droplets (LDs). To identify which, co‐localisation studies with targeted probes were completed. CHO and MCF‐7 cells were treated with B2P, B2PI, MB2P or MB2PI and co‐stained with specific organelle markers including LD probes; PyLa−C17Cer and BODIPY 493/503, an endoplasmic reticulum stain; ER Tracker Blue‐White and a lysosomal stain; LysoTracker Deep Red. Pyla‐C17Cer was previously published and localises in both the ER and LDs.[41] Cellular uptake of B2PI was recently reported in MCF‐7 cells, though localisation was not explored.[25]
MCF‐7 and CHO cells were treated with B2P, MB2P, B2PI or MB2PI for 17 h and co‐stained with a number of dyes for co‐staining including LysoTracker Deep Red, ER Tracker Blue/White, PyLa−C17Cer, BODIPY 493/503 and H2DCFDA. Cells were imaged in phenol red free media using a Leica DMi8 confocal microscope with a 63x or 100x oil immersion lens and a heated state at 37 °C.
Uptake in Live Cell Monolayers
CHO cells were incubated in 75cm2 cell culture flasks (Corning) with DMEM/F-12 Ham medium (Sigma-Aldrich) with L-glutamine and sodium bicarbonate supplemented with 10% fetal bovine serum (FBS) (Gibco) and 1% penicillin-streptomycin (Sigma-Aldrich). MCF-7 cells were incubated in 25cm2 cell culture flasks with RPMI-1640 medium (Sigma-Aldrich) with L-glutamine and sodium bicarbonate supplemented with 10% fetal bovine serum (FBS, Gibco) and 1% penicillin-streptomycin. Cells were incubated at 37 °C with 5% CO2 and detached from the flask at 90% confluency using a 1X Trypsin-EDTA solution (Sigma-Aldrich). Cells were counted using the EVE automated cell counter (NanoEnTek) and seeded at 1 x 10^5 cells per mL in a 4 or 8 chamber µ-slide (ibidi) for cell imaging and left for 24 h at 37 °C. Cells were rinsed with 1X PBS (Gibco) and stained with B2P or B2PI at 10 µM and MB2P or MB2PI at 30 µM for 17 h. Cells were washed twice with PBS and covered with phenol red free RPMI medium (Gibco) for imaging. […]

The IC50 is the concentration that gives 50% inhibition.

`CC1=C(I)C(C)=[N+]2C1=C(c1ccccc1)c1c(C)c(-c3ccc4c5cccc6cccc(c7cccc3c74)c65)c(C)n1[B-]2(F)F` [B2PI]: in data set [1], half-maximal inhibition (IC50) was put at 7.65 µM and the “Photo Index (PI), ratio of dark IC50 to light IC50” value (“Photo Index (PI), ratio” for short) is reported as 5.7. In addition, in data set [2], the “Pearson Coefficient (r) with ER Tracker Blue/White” value is listed as 0.19 ± 0.05.
Take `CC1=CC(C)=[N+]2C1=C(c1ccccc1)c1c(C)c(-c3ccc4c5cccc6cccc(c7cccc3c74)c65)c(C)n1[B-]2(F)F` [B2P]: in data set [1], half-maximal inhibition (IC50) required 6.91 µM and the “Photo Index (PI), ratio” value was 6.6. In addition, the “Pearson Coefficient (r) with ER Tracker Blue/White” value in data set [2] came out at 0.14 ± 0.07.
Turning to `CC1=C(c2ccc3c4cccc5cccc(c6cccc2c63)c54)C(C)=[N+]2C1=C(c1c(C)cc(C)cc1C)c1c(C)c(I)c(C)n1[B-]2(F)F` [MB2PI], in data set [1], the half-maximal inhibitory concentration (IC50) was 5.62 µM; the “Photo Index (PI), ratio” value was > 8.9 and > 8. Also, the “Pearson Coefficient (r) with ER Tracker Blue/White” value in data set [2] is 0.53 ± 0.04 and ~0.5.
In the case of `CC1=C(c2ccc3c4cccc5cccc(c6cccc2c63)c54)C(C)=[N+]2C1=C(c1c(C)cc(C)cc1C)c1c(C)cc(C)n1[B-]2(F)F` [MB2P], in data set [1], the IC50 is 6.26 µM and the “Photo Index (PI), ratio” value is recorded as over 8. Moreover, the “Pearson Coefficient (r) with ER Tracker Blue/White” value in data set [2] is 0.54 ± 0.04 and ~0.5.
